# Reference: ChEMBL document CHEMBL1201862, “PubChem BioAssay data set” (2004)
#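 Cultured in 96-well plates, cells were exposed to test compound for 48 hours across five concentrations. GI50 = concentration required for 50% inhibition of growth.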 Calls of active or inactive are those of the source. Cut-off read from the data, not from the text of the source: active = GI50 up to about 1.1 µM and inactive = higher.
# Columns and labels:
# Test in all cases: NCI tumour cell line growth inhibition, 48 h
# 786-0 = system: 786-0
# A498 = system: A498
# A549 = system: A549
# ACHN = system: ACHN
# CAKI-1 = system: CAKI-1
# CCRF-CEM = system: CCRF-CEM
# COLO 205 = system: COLO 205
# DLD-1 = system: DLD-1
# DMS-273 = system: DMS-273
# EKVX = system: EKVX
# HCC 2998 = system: HCC 2998
# HCT-116 = system: HCT-116
# HCT-15 = system: HCT-15
# HL-60 = system: HL-60
# HOP-18 = system: HOP-18
# HOP-62 = system: HOP-62
# HT-29 = system: HT-29
# IGROV-1 = system: IGROV-1
# K562 = system: K562
# KM-20L2 = system: KM-20L2
# KM12 = system: KM12
# LOX IMVI = system: LOX IMVI
# LXFL 529 = system: LXFL 529
# M14 = system: M14
# M19-MEL = system: M19-MEL
# MOLT-4 = system: MOLT-4
# Malme-3M = system: Malme-3M
# NCI-H226 = system: NCI-H226
# NCI-H23 = system: NCI-H23
# NCI-H460 = system: NCI-H460
# NCI-H522 = system: NCI-H522
# OVCAR-3 = system: OVCAR-3
# OVCAR-4 = system: OVCAR-4
# OVCAR-5 = system: OVCAR-5
# OVCAR-8 = system: OVCAR-8
# RXF 393 = system: RXF 393
# RXF 631 = system: RXF 631
# SF-268 = system: SF-268
# SF-295 = system: SF-295
# SF-539 = system: SF-539
# SK-MEL-28 = system: SK-MEL-28
# SK-MEL-2 = system: SK-MEL-2
# SK-MEL-5 = system: SK-MEL-5
# SK-OV-3 = system: SK-OV-3
# SN12C = system: SN12C
# SNB-19 = system: SNB-19
# SNB-75 = system: SNB-75
# SNB-78 = system: SNB-78
# SR = system: SR
# SW-620 = system: SW-620
# TK-10 = system: TK-10
# U-251 = system: U-251
# UACC-257 = system: UACC-257
# UACC-62 = system: UACC-62
# UO-31 = system: UO-31
# XF498 = system: XF498
# DMS-114 = system: DMS-114
# HOP-92 = system: HOP-92
# RPMI-8226 = system: RPMI-8226
structure (smiles),measurement,setting,value
CCOC(=N)CC(=O)NC(C)c1ccccc1 (stereo not drawn),GI50,786-0,> 100 µM (inactive)
same,GI50,A498,> 100 µM (inactive)
same,GI50,A549,> 100 µM (inactive)
same,GI50,ACHN,> 100 µM (inactive)
same,GI50,CAKI-1,> 100 µM (inactive)
same,GI50,CCRF-CEM,> 100 µM (inactive)
same,GI50,COLO 205,> 100 µM (inactive)
same,GI50,DLD-1,> 100 µM (inactive)
same,GI50,DMS-273,> 100 µM (inactive)
same,GI50,EKVX,> 100 µM (inactive)
same,GI50,HCC 2998,87.7 µM (inactive)
same,GI50,HCT-116,> 100 µM (inactive)
same,GI50,HCT-15,> 100 µM
same,GI50,HL-60,> 100 µM (inactive)
same,GI50,HOP-18,> 100 µM (inactive)
same,GI50,HOP-62,> 100 µM (inactive)
same,GI50,HT-29,> 100 µM (inactive)
same,GI50,IGROV-1,> 100 µM (inactive)
same,GI50,K562,> 100 µM (inactive)
same,GI50,KM-20L2,> 100 µM (inactive)
same,GI50,KM12,> 100 µM (inactive)
same,GI50,LOX IMVI,> 100 µM (inactive)
same,GI50,LXFL 529,> 100 µM (inactive)
same,GI50,M14,> 100 µM (inactive)
same,GI50,M19-MEL,> 100 µM (inactive)
same,GI50,MOLT-4,> 100 µM (inactive)
same,GI50,Malme-3M,> 100 µM (inactive)
same,GI50,NCI-H226,> 100 µM (inactive)
same,GI50,NCI-H23,> 100 µM (inactive)
same,GI50,NCI-H460,> 100 µM (inactive)
same,GI50,NCI-H522,> 100 µM (inactive)
same,GI50,OVCAR-3,> 100 µM (inactive)
same,GI50,OVCAR-4,> 100 µM (inactive)
same,GI50,OVCAR-5,> 100 µM (inactive)
same,GI50,OVCAR-8,> 100 µM (inactive)
same,GI50,RXF 393,> 100 µM (inactive)
same,GI50,RXF 631,> 100 µM (inactive)
same,GI50,SF-268,> 100 µM (inactive)
same,GI50,SF-295,> 100 µM (inactive)
same,GI50,SF-539,> 100 µM (inactive)
same,GI50,SK-MEL-28,> 100 µM (inactive)
same,GI50,SK-MEL-2,> 100 µM (inactive)
same,GI50,SK-MEL-5,> 100 µM (inactive)
same,GI50,SK-OV-3,> 100 µM (inactive)
same,GI50,SN12C,> 100 µM (inactive)
same,GI50,SNB-19,> 100 µM (inactive)
same,GI50,SNB-75,> 100 µM (inactive)
same,GI50,SNB-78,> 100 µM (inactive)
same,GI50,SR,> 100 µM (inactive)
same,GI50,SW-620,> 100 µM (inactive)
same,GI50,TK-10,> 100 µM (inactive)
same,GI50,U-251,> 100 µM (inactive)
same,GI50,UACC-257,> 100 µM (inactive)
same,GI50,UACC-62,> 100 µM (inactive)
same,GI50,UO-31,> 100 µM (inactive)
same,GI50,XF498,> 100 µM (inactive)
O=c1c2ccccc2c(=O)c2c1c1[nH]c3ccccc3c1c1c(=O)c3ccccc3c(=O)c21,GI50,786-0,> 100 µM (inactive)
same,GI50,A498,> 100 µM (inactive)
same,GI50,A549,> 100 µM (inactive)
same,GI50,ACHN,> 100 µM (inactive)
same,GI50,CAKI-1,> 100 µM (inactive)
same,GI50,CCRF-CEM,94 µM (inactive)
same,GI50,COLO 205,> 100 µM (inactive)
same,GI50,DLD-1,> 100 µM (inactive)
same,GI50,DMS-114,> 100 µM (inactive)
same,GI50,DMS-273,> 100 µM (inactive)
same,GI50,EKVX,> 100 µM (inactive)
same,GI50,HCC 2998,> 100 µM (inactive)
same,GI50,HCT-116,> 100 µM (inactive)
same,GI50,HCT-15,> 100 µM
same,GI50,HL-60,> 100 µM (inactive)
same,GI50,HOP-18,> 100 µM (inactive)
same,GI50,HOP-62,> 100 µM (inactive)
same,GI50,HOP-92,> 100 µM (inactive)
same,GI50,HT-29,> 100 µM (inactive)
same,GI50,IGROV-1,> 100 µM (inactive)
same,GI50,K562,> 100 µM (inactive)
same,GI50,KM-20L2,> 100 µM (inactive)
same,GI50,KM12,> 100 µM (inactive)
same,GI50,LOX IMVI,> 100 µM (inactive)
same,GI50,M14,> 100 µM (inactive)
same,GI50,M19-MEL,> 100 µM (inactive)
same,GI50,MOLT-4,> 100 µM (inactive)
same,GI50,Malme-3M,> 100 µM (inactive)
same,GI50,NCI-H226,> 100 µM (inactive)
same,GI50,NCI-H23,> 100 µM (inactive)
same,GI50,NCI-H460,> 100 µM (inactive)
same,GI50,NCI-H522,> 100 µM (inactive)
same,GI50,OVCAR-3,> 100 µM (inactive)
same,GI50,OVCAR-4,> 100 µM (inactive)
same,GI50,OVCAR-5,> 100 µM (inactive)
same,GI50,OVCAR-8,> 100 µM (inactive)
same,GI50,RPMI-8226,> 100 µM (inactive)
same,GI50,RXF 393,> 100 µM (inactive)
same,GI50,RXF 631,> 100 µM (inactive)
same,GI50,SF-268,> 100 µM (inactive)
same,GI50,SF-295,> 100 µM (inactive)
same,GI50,SF-539,> 100 µM (inactive)
same,GI50,SK-MEL-28,> 100 µM (inactive)
same,GI50,SK-MEL-2,> 100 µM (inactive)
same,GI50,SK-MEL-5,> 100 µM (inactive)
same,GI50,SK-OV-3,> 100 µM (inactive)
same,GI50,SN12C,> 100 µM (inactive)
same,GI50,SNB-19,> 100 µM (inactive)
same,GI50,SNB-75,> 100 µM (inactive)
same,GI50,SNB-78,> 100 µM (inactive)
same,GI50,SW-620,> 100 µM (inactive)
same,GI50,TK-10,> 100 µM (inactive)
same,GI50,U-251,> 100 µM (inactive)
same,GI50,UACC-257,> 100 µM (inactive)
same,GI50,UACC-62,> 100 µM (inactive)
same,GI50,UO-31,> 100 µM (inactive)
same,GI50,XF498,> 100 µM (inactive)
